{"source": "patent US10562910B2", "about": "“Nitrogen-containing tricyclic compounds and uses thereof in medicine” (SUNSHINE LAKE PHARMA CO., LTD., priority 2016, dated 2020)", "key": {"[1]": {"target": "FXR ligand binding domain (LBD) (Homo sapiens (Human), UniProt Q96RI1)", "sequence (Q96RI1 261-481)": "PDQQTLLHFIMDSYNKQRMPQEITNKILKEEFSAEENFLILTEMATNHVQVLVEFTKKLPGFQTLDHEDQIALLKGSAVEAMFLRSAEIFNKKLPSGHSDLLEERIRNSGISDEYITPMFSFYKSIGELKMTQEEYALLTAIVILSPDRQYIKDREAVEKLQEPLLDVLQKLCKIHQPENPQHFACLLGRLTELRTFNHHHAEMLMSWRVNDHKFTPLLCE", "test": "Mammalian one hybrid (M1H) GAL4 reporter gene assay in HEK293 cells", "type": "cell-based", "conditions": "GAL4 reporter gene test", "excerpt": "Mammalian one hybrid technology is also called chimeric receptor gene assay. Based on the GAL4 chimera receptor assay, the activity of compounds which mediated activation of FXR was detected by dual luciferase reporter assay. The methods were as follows: cDNA encoding the FXR ligand binding domain (LBD), the yeast GAL4 DNA binding domain (DBD) and the Renilla luciferase DNA were fused to construct a chimera expression plasmid pBIND-FXR (Promega). […] The plasmid pG5Luc (Promega) was used as the reporter plasmid, containing the GAL4 upstream activation sequence (UAS) and the Firefly luciferase receptor gene. All GAL4 reporter gene assays were done in HEK293 cells. Cells were cultured at 37° C., 5% CO2 under humidified conditions. […] The contents were mixed completely and incubated the mixtures for 15 minutes at room temperature. The volume of the transfection mixture was 2.5 μl/well. Trypsinized and diluted the cell slurry at a density of […] (100 μl/well for 96-well plate). Then added required volume of transfection mixture prepared previously into the cell slurry, and dispensed 100 μl/well of the cell slurry into the 96-well plate and incubated the plate for 24 hours at 37° C., 5% CO2 under humidified conditions. Compounds prediluted in complete medium were added into each well and then incubated at 37° C., 5% CO2 under humidified conditions for 18 hours. The firefly and renilla luciferase signal was assayed by Promega's Dual Luciferase Reporter Assay System.\nThe % Activation value was calculated by the following equation: Activation %=[(X−Min)/(Max−Min)]×100%. “X” is the “F/R” value from compounds. “F/R” means “Firefly/Renilla”. “Min” is the mean “F/R” value from no compound control. “Max” is the mean “F/R” value from reference compound control. Finally, the EC50 value of each compounds were calculated by GraphPrism 5.0."}, "FXR-LBD": {"target": "FXR-LBD (Homo sapiens (Human), UniProt Q96RI1)", "sequence (Q96RI1 262-486)": "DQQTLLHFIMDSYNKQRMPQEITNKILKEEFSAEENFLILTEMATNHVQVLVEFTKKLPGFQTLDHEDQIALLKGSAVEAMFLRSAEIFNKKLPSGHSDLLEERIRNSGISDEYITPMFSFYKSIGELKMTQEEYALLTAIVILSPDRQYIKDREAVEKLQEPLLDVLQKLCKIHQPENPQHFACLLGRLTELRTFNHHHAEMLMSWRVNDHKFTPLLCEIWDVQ", "test": "TR-FRET Farnesoid X Receptor Coactivator Assay", "type": "biochemical", "conditions": "TR-FRET farnesoid X receptor protein coactivator activity", "experimental": "Purchasing invitrogen PV4833 kits. The procedure refers to LanthaScreen™ TR-FRET Farnesoid X Receptor Coactivator Assay\nFirst, the required amount of the compound was weighed and dissolved in 100% DMSO at the maximum concentration of 3000 μM. The solution at the maximum concentration was diluted by 3-fold serial dilution in DMSO to get 10 concentrations;\nSecond, the above prepared solutions of different concentrations were diluted to 50-fold with a buffer supplied with the kit, to 2× compound solution, followed by mixing and then 10 μL of the diluted solution was added to a 384 well plate;\nThird, FXR-LBD was diluted with a buffer to 4× solution, and 5 μL of the diluent was added to the 384 well plate of second step;\nFourth, Fluorescein-SRC2-2 and Tb anti-GST antibody were diluted to 4× Fluorescein-SRC2-2 and Tb anti-GST antibody solution. Then two reagents were mixed together, and 5 μL of the mixture was added to the 384 well plate of third step;\nFinally, the solution of the 384 well above was mixed uniformly by centrifuging, and then incubated at room temperature for 1 h. Then the TR-FRET Endpoint method was used for measuring the solution at wavelengths of 520 nm, 495 nm and 337 nm."}}, "data": [{"smiles": "O=C(O)c1cc2c(cc1O)CCc1nc(OCc3c(-c4c(Cl)cccc4Cl)noc3C3CC3)ccc1O2", "note": "[Example 11, 2-((5-cyclopropyl-3-(2,6-dichlorophenyl)isoxazol-4-yl)methoxy)-8-hydroxy-10,11-dihydrobenzo[6,7]oxepino[3,2-b]pyridine-7-carboxylic acid]", "values": [{"measurement": "EC50", "setting": "[1]", "result": 105, "unit": "nM"}, {"measurement": "EC50", "setting": "FXR-LBD", "result": 17, "unit": "nM"}]}]}
